Measured values: patent US9340590B2 (priority 2011, dated 2016)
Positions of bridges follow the written chain, without caps; N, C: chain ends. Non-standard residues stand in square brackets, D forms with d. Residues, ends and D or L forms follow the SMILES beside them. Groups on a side chain read outwards from the residue. Orn = NCCC[C@H](N)C(=O)O; Pra = C#CC[C@H](N)C(=O)O

Columns and labels:
hNav1.5 = hNav1.5 (Homo sapiens, UniProt Q14524); assay: cell-based
hNav1.7 = hNav1.7 (Homo sapiens, UniProt Q15858); assay: cell-based; details: Nav1.7 Use IC50
Chain of hNav1.7 (Q15858 whole entry, looked up): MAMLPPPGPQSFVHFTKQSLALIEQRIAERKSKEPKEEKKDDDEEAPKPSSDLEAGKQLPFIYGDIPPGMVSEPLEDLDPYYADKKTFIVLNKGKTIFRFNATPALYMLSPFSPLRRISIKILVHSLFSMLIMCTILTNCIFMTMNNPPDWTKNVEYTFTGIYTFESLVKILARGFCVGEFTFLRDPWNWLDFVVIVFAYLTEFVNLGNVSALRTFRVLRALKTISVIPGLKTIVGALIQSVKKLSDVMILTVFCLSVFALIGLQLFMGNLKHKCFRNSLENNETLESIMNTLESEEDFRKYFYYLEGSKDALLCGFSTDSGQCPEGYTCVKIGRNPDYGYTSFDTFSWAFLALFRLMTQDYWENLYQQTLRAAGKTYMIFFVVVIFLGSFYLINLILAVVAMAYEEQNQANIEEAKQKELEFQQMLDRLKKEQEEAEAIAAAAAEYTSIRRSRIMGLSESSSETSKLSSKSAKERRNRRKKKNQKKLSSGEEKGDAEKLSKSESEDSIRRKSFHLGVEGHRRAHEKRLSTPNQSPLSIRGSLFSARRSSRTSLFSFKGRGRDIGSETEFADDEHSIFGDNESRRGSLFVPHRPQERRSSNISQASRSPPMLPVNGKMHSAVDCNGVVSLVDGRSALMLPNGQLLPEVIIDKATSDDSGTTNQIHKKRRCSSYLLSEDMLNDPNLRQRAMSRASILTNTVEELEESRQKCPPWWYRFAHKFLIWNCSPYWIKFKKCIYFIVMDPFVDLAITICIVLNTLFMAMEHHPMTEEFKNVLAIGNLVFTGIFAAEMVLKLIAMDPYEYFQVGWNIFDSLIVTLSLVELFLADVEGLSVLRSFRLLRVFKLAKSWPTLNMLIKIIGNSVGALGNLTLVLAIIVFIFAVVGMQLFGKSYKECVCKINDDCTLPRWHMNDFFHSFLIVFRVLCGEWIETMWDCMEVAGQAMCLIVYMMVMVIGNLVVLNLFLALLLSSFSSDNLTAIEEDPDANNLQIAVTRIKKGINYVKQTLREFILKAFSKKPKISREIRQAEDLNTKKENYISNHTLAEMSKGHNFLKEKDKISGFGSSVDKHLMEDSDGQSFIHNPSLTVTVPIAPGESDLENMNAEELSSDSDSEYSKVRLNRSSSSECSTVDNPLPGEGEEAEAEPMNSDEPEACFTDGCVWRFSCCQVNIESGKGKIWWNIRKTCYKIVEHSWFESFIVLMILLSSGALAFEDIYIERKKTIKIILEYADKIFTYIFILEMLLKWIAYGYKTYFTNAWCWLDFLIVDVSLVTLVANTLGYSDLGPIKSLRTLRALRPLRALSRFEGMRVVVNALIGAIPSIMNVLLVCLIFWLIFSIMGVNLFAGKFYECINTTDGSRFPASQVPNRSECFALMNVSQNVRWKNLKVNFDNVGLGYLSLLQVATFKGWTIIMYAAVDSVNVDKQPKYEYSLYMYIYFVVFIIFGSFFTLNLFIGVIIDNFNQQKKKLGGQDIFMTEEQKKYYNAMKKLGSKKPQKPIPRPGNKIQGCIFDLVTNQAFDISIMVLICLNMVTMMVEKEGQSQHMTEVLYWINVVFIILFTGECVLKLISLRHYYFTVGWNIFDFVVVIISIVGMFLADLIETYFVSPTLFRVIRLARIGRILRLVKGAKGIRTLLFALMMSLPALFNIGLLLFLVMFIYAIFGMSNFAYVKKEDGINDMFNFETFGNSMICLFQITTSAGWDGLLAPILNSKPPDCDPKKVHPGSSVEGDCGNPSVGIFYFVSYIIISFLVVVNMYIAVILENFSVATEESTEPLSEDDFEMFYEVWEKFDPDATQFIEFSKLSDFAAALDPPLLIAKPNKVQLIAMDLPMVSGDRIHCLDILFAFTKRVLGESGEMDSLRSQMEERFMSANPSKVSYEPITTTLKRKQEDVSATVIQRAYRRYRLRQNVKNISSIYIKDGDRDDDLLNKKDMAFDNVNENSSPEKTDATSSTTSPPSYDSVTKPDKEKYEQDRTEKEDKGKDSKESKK

Chain of hNav1.5 (Q14524 whole entry, looked up): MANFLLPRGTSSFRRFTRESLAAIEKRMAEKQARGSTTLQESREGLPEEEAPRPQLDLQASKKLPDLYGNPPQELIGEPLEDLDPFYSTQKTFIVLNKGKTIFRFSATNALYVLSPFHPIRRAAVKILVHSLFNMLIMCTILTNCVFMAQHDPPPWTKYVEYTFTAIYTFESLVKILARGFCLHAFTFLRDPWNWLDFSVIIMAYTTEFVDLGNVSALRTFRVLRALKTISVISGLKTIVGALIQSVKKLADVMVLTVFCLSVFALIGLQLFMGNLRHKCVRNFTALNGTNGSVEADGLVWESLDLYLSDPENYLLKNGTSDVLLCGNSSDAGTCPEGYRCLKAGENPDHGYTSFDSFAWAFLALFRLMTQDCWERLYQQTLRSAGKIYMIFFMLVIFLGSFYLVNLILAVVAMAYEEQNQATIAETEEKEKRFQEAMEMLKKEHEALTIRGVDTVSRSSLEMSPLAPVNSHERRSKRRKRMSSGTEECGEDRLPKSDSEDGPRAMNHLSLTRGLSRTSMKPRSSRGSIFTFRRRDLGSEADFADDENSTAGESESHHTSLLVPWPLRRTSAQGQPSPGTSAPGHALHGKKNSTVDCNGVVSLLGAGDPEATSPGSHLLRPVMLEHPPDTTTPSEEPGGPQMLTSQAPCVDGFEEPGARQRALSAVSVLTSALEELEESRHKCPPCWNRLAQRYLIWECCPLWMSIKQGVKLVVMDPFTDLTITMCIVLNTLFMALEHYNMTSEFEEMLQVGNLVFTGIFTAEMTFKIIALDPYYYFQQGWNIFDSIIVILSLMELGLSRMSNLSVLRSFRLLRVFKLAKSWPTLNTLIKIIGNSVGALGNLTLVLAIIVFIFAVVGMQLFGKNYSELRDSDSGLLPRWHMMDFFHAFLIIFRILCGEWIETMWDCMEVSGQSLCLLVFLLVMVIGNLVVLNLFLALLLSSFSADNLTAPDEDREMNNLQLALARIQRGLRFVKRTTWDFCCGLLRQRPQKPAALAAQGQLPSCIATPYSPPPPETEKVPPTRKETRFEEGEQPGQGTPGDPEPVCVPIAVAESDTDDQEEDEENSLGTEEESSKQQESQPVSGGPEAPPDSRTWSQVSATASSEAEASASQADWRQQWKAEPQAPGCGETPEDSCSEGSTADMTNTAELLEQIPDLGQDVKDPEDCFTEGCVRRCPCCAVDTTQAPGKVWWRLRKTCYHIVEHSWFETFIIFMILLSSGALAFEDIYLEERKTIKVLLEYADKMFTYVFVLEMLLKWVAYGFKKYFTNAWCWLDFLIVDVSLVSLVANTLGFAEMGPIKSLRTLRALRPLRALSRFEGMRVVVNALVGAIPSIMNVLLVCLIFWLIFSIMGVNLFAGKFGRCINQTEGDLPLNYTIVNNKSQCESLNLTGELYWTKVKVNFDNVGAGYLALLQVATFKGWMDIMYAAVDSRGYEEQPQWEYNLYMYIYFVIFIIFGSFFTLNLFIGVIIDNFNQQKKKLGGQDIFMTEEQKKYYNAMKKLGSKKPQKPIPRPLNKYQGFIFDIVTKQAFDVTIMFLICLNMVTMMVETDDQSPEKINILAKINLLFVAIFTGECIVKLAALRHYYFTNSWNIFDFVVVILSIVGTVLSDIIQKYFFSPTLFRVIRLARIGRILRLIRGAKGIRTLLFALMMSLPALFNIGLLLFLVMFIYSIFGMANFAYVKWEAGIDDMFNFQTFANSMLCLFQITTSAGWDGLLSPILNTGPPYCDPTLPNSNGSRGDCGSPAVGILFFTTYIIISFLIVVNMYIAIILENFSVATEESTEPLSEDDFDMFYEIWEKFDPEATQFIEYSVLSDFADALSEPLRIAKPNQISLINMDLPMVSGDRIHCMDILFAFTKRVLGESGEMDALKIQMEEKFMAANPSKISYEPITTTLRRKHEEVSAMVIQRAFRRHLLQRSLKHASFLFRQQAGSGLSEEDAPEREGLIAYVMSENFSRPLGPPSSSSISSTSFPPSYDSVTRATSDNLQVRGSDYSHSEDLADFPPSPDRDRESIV

SMILES: CC[C@H](C)[C@@H]1NC(=O)[C@@H]2CSSC[C@@H]3NC(=O)[C@H](C(C)C)NC(=O)[C@H](CC(C)C)NC(=O)[C@H](CC(N)=O)NC(=O)[C@@H]4CCCN4C(=O)[C@H](CCCNC(=N)N)NC(=O)[C@H](CSSC[C@H](NC(=O)[C@@H](N)CC(=O)O)C(=O)N[C@@H](CC(C)C)C(=O)NCC(=O)N[C@@H](C)C(=O)N[C@@H](CC(C)C)C(=O)N[C@@H](CCCNC(=N)N)C(=O)N[C@@H](CCCCN)C(=O)N2)NC(=O)[C@H](CSSC[C@@H](C(=O)N[C@@H](CCCCN)C(=O)N[C@@H](Cc2ccc(O)cc2)C(=O)N[C@H](C(=O)N[C@@H](Cc2ccccc2)C(N)=O)C(C)C)NC(=O)[C@H](Cc2c[nH]c4ccccc24)NC(=O)[C@H](CCCCN)NC(=O)[C@H](Cc2c[nH]cn2)NC(=O)[C@H]([C@@H](C)O)NC(=O)[C@H](CCCNC(=N)N)NC(=O)[C@H](CO)NC3=O)NC(=O)[C@H](CCCCN)NC(=O)[C@H](CC(=O)O)NC(=O)[C@H](CC(N)=O)NC(=O)[C@H](CCC(=O)O)NC(=O)[C@@H]2CCCN2C1=O [[Ala5;Leu6;Glu12]GpTx-1(1-34)]
- IC50 (hNav1.5): > 10000 nM
- IC50 (hNav1.7): 21 nM

SMILES: CC[C@H](C)[C@@H]1NC(=O)[C@@H]2CSSC[C@@H]3NC(=O)[C@H](C(C)C)NC(=O)[C@H](CC(C)C)NC(=O)[C@H](CC(N)=O)NC(=O)[C@@H]4CCCN4C(=O)[C@H](CCCNC(=N)N)NC(=O)[C@H](CSSC[C@H](NC(=O)[C@@H](N)CC(=O)O)C(=O)N[C@@H](CC(C)C)C(=O)NCC(=O)N[C@@H](C)C(=O)N[C@@H](CCSC)C(=O)N[C@@H](CCCNC(=N)N)C(=O)N[C@@H](CCCCN)C(=O)N2)NC(=O)[C@H](CSSC[C@@H](C(=O)N[C@@H](CCCCN)C(=O)N[C@@H](Cc2ccc(O)cc2)C(=O)N[C@H](C(=O)N[C@@H](Cc2ccccc2)C(N)=O)C(C)C)NC(=O)[C@H](Cc2c[nH]c4ccccc24)NC(=O)[C@H](CCCN)NC(=O)[C@H](Cc2c[nH]cn2)NC(=O)[C@H]([C@@H](C)O)NC(=O)[C@H](CCCNC(=N)N)NC(=O)[C@H](CO)NC3=O)NC(=O)[C@H](CCCCN)NC(=O)[C@H](CC(=O)O)NC(=O)[C@H](CC(N)=O)NC(=O)[C@H](CC(=O)O)NC(=O)[C@@H]2CCCN2C1=O [[Ala5;Orn28]GpTx-1(1-34)] (H-DCLGAMRKCIPDNDKCCRPNLVCSRTH[Orn]WCKYVF-NH2; disulfide 2-17, 9-23, 16-30)
- IC50 (hNav1.5): > 10000 nM
- IC50 (hNav1.7): 59 nM

SMILES: CC(C)C[C@@H]1NC(=O)[C@@H](NC(=O)[C@@H](N)CC(=O)O)CSSC[C@@H]2NC(=O)[C@@H]3CSSC[C@@H](C(=O)N[C@@H](CCCCN)C(=O)N[C@@H](Cc4ccc(O)cc4)C(=O)N[C@H](C(=O)N[C@@H](Cc4ccccc4)C(N)=O)C(C)C)NC(=O)[C@H](Cc4c[nH]c5ccccc45)NC(=O)[C@H](CCCCN)NC(=O)[C@H](Cc4c[nH]cn4)NC(=O)[C@H]([C@@H](C)O)NC(=O)[C@H](CCCNC(=N)N)NC(=O)[C@H](CO)NC(=O)[C@H](CSSC[C@H](NC(=O)[C@H](CCCCN)NC(=O)[C@H](CCCNC(=N)N)NC(=O)[C@H](Cc4ccccc4)NC(=O)[C@H](C)NC(=O)CNC1=O)C(=O)N[C@@H](CC(=O)O)C(=O)N1CCC[C@H]1C(=O)N[C@@H](CC(=O)O)C(=O)N[C@@H](CC(N)=O)C(=O)N[C@@H](CC(=O)O)C(=O)N[C@@H](CCCCN)C(=O)N3)NC(=O)[C@H](C(C)C)NC(=O)[C@H](CC(C)C)NC(=O)[C@H](CC(N)=O)NC(=O)[C@@H]1CCCN1C(=O)[C@H](CCCNC(=N)N)NC2=O [[Ala5;Phe6;Asp10]GpTx-1(1-34)] (H-DCLGAFRKCDPDNDKCCRPNLVCSRTHKWCKYVF-NH2; disulfide 2-17, 9-23, 16-30)
- IC50 (hNav1.5): > 10000 nM
- IC50 (hNav1.7): 40 nM

SMILES: CC(C)C[C@@H]1NC(=O)[C@@H](NC(=O)[C@@H](N)CC(=O)O)CSSC[C@@H]2NC(=O)[C@@H]3CSSC[C@@H](C(=O)N[C@@H](CCCCN)C(=O)N[C@@H](Cc4ccc(O)cc4)C(=O)N[C@H](C(=O)N[C@@H](Cc4ccccc4)C(N)=O)C(C)C)NC(=O)[C@H](Cc4c[nH]c5ccccc45)NC(=O)[C@H](CCCCN)NC(=O)[C@H](Cc4c[nH]cn4)NC(=O)[C@H]([C@@H](C)O)NC(=O)[C@H](CCCNC(=N)N)NC(=O)[C@H](CO)NC(=O)[C@H](CSSC[C@H](NC(=O)[C@H](CCCCN)NC(=O)[C@H](CCCNC(=N)N)NC(=O)[C@H](Cc4ccccc4)NC(=O)[C@H](C)NC(=O)CNC1=O)C(=O)N[C@@H](CCC(=O)O)C(=O)N1CCC[C@H]1C(=O)N[C@@H](CC(=O)O)C(=O)N[C@@H](CC(N)=O)C(=O)N[C@@H](CC(=O)O)C(=O)N[C@@H](CCCCN)C(=O)N3)NC(=O)[C@H](C(C)C)NC(=O)[C@H](CC(C)C)NC(=O)[C@H](CC(N)=O)NC(=O)[C@@H]1CCCN1C(=O)[C@H](CCCNC(=N)N)NC2=O [[Ala5;Phe6;Glu10]GpTx-1(1-34)] (H-DCLGAFRKCEPDNDKCCRPNLVCSRTHKWCKYVF-NH2; disulfide 2-17, 9-23, 16-30)
- IC50 (hNav1.5): > 10000 nM
- IC50 (hNav1.7): 79 nM

SMILES: CC[C@H](C)[C@@H]1NC(=O)[C@@H]2CSSC[C@@H]3NC(=O)[C@H](C(C)C)NC(=O)[C@H](CC(C)C)NC(=O)[C@H](CC(N)=O)NC(=O)[C@@H]4CCCN4C(=O)[C@H](CCCNC(=N)N)NC(=O)[C@H](CSSC[C@H](NC(=O)[C@@H](N)CC(=O)O)C(=O)N[C@@H](CC(C)C)C(=O)NCC(=O)N[C@@H](C)C(=O)N[C@@H](Cc4ccccc4)C(=O)N[C@@H](CCCNC(=N)N)C(=O)N[C@@H](CCCCN)C(=O)N2)NC(=O)[C@H](CSSC[C@@H](C(=O)N[C@@H](CCCCN)C(=O)N[C@@H](Cc2ccc(O)cc2)C(=O)N[C@H](C(=O)N[C@@H](Cc2ccccc2)C(N)=O)C(C)C)NC(=O)[C@H](Cc2c[nH]c4ccccc24)NC(=O)[C@H](CCCCN)NC(=O)[C@H](Cc2c[nH]cn2)NC(=O)[C@H]([C@@H](C)O)NC(=O)[C@H](CCCNC(=N)N)NC(=O)[C@H](CO)NC3=O)NC(=O)[C@H](CCCCN)NC(=O)[C@H](CC(=O)O)NC(=O)[C@H](CC(N)=O)NC(=O)[C@H](CCC(=O)O)NC(=O)[C@@H]2CCCN2C1=O [[Ala5;Phe6;Glu12]GpTx-1(1-34)] (H-DCLGAFRKCIPENDKCCRPNLVCSRTHKWCKYVF-NH2; disulfide 2-17, 9-23, 16-30)
- IC50 (hNav1.5): > 10000 nM
- IC50 (hNav1.7): 28 nM

SMILES: C#CC[C@H](NC(C)=O)C(=O)NCCCC[C@@H]1NC(=O)[C@H](CC(=O)O)NC(=O)[C@@H]2CCCN2C(=O)[C@H]([C@@H](C)CC)NC(=O)[C@@H]2CSSC[C@@H]3NC(=O)[C@H](C(C)C)NC(=O)[C@H](CC(C)C)NC(=O)[C@H](CC(N)=O)NC(=O)[C@@H]4CCCN4C(=O)[C@H](CCCNC(=N)N)NC(=O)[C@H](CSSC[C@H](NC(=O)[C@@H](N)CC(=O)O)C(=O)N[C@@H](CC(C)C)C(=O)NCC(=O)N[C@@H](C)C(=O)N[C@@H](Cc4ccccc4)C(=O)N[C@@H](CCCNC(=N)N)C(=O)N[C@@H](CCCCN)C(=O)N2)NC(=O)[C@H](CSSC[C@@H](C(=O)N[C@@H](CCCCN)C(=O)N[C@@H](Cc2ccc(O)cc2)C(=O)N[C@H](C(=O)N[C@@H](Cc2ccccc2)C(N)=O)C(C)C)NC(=O)[C@H](Cc2c[nH]c4ccccc24)NC(=O)[C@H](CCCCN)NC(=O)[C@H](Cc2c[nH]cn2)NC(=O)[C@H]([C@@H](C)O)NC(=O)[C@H](CCCNC(=N)N)NC(=O)[C@H](CO)NC3=O)NC(=O)[C@H](CCCCN)NC(=O)[C@H](CC(=O)O)NC1=O [[Ala5;Phe6;K(Ac-Pra)13]GpTx-1(1-34)] (H-DCLGAFRKCIPDK([Pra-Ac])DKCCRPNLVCSRTHKWCKYVF-NH2; disulfide 2-17, 9-23, 16-30)
- IC50 (hNav1.5): > 10000 nM
- IC50 (hNav1.7): 11 nM
